Reference: patent publication US20030161862A1, “Bacterial growth regulators or inhibitors with the use of 1,5-d-anhydrofructose” (priority 2000, published 2003)
Entries after “also recorded” stand apart in the source; their conditions may differ.

Columns and labels:
Assay type in all cases: cell-based
[1] = test system: a variety of bacteria (strains of Table 1); assay: growth suppression on agar media, summary statements for all tested bacteria; conditions: for effect of enhancing the growth suppressing effect of 1,5-D-anhydrofructose: co-presence with 1,5-D-anhydrofructose, no data shown; for growth suppressing ability when solely used: solely used at the concentrations of the tests (sodium ascorbate 1.0%, sodium erythorbate 0.2%, chelating agents 0.2-0.5%)
Procedure: (§1) When a variety of bacteria are cultured in agar media in the presence of 1,5-D-anhydrofructose without any of an antioxidant or a chelating agent, a minimum growth inhibitory concentration of 1,5-D-anhydrofructose is 3.0 to 5.0% for gram-negative bacteria and 1.0 to 3.0% for gram-positive bacteria. Under the circumstances, influences on growth of a variety of bacteria in the presence of 1,5-D-anhydrofructose with or without sodium ascorbate which is a typical antioxidant to be used in food and beverages were examined.
(§2) After the bacterial strains were suspended in physiological salt solutions, they were inoculated into agar media (each containing 0.25% of yeast extract, 0.5% of polypeptone, 1.0% of glucose and 1.5% of soft agar and having a pH of 6.5) with platinum loops and then cultured at 37° C. until colonies were formed. Thereafter, the bacteria were inoculated, with sterilized toothpicks, from the colonies into agar media of the above composition each of which contained 1.0% of sodium ascorbate and 1.0% of 1,5-D-anhydrofructose, and into agar media of the above composition each of which contained 1.0% of 1,5-D-anhydrofructose and no sodium ascorbate. For controls, culture media of the same composition each of which contained neither sodium ascorbate nor 1,5-D-anhydrofructose and culture media of the same composition each of which contained 1.0% of sodium ascorbate and no 1,5-D-anhydrofructose were used. Abilities of sodium ascorbate and 1,5-D-anhydrofructose to suppress/inhibit growth of the bacteria were evaluated by visually observing the colonies formed after the bacteria were cultured at 37° C. for one night.
(§3) Those cultured in the absence of the chelating agents, 1,5-D-anhydrofructose, sodium ascorbate and sodium erythorbate were taken as controls. As for an agar medium, a method for inoculating the bacteria, conditions for culturing the bacteria, and a method for evaluating a growth suppressing/inhibiting ability, they are the same as those used in the tests whose results are shown in Tables 2 and 3.

Bacillus cereus IFO 3131 = assay: growth suppression/inhibition on agar media, colonies observed visually
Procedure: (§4) Under the circumstances, influences on growth of a variety of bacteria in the presence of 1,5-D-anhydrofructose with or without sodium ascorbate which is a typical antioxidant to be used in food and beverages were examined.
as §2, with “[…])” for “1.0% of glucose and 1.5% of soft agar and having a pH of 6.5)”
(§5) The substances were used at concentrations shown in the legend of Table 4.
as §3

[2] = test system: Lactobacillus casei ATCC 393; assay: as above
Procedure: as §4
as §2, with “[…])” for “1.0% of glucose and 1.5% of soft agar and having a pH of 6.5)”
as §5, §3

[3] = test system: Proteus vulgaris IFO 3851; assay: as above
Procedure: as §4
as §2, with “[…])” for “1.0% of glucose and 1.5% of soft agar and having a pH of 6.5)”
as §5, §3

[4] = test system: Escherichia coli IFO 3301; assay: as above
Procedure: as §4
as §2, with “[…])” for “1.0% of glucose and 1.5% of soft agar and having a pH of 6.5)”
as §5, §3

gram-positive bacteria = assay: minimum growth inhibitory concentration / growth inhibition in agar media; conditions: 0.5%, used independently, agar medium pH 7.0
Procedure: as §1
as §2, with “[…])” for “1.0% of glucose and 1.5% of soft agar and having a pH of 6.5)”
as §5

[5] = test system: Streptococcus eqinus ATCC 9812; assay: growth suppression/inhibition on agar media, colonies observed visually; conditions: agar medium pH 7.0, 37° C. one night; BHA 0.5%, BHT 0.5%, 1,5-D-anhydrofructose 1%
[6] = test system: Bacillus subtillis IFO 3009; assay: as above; conditions: agar medium pH 7.0, 37° C. one night; BHA 0.5%, BHT 0.5%, 1,5-D-anhydrofructose 1%
[7] = test system: Enterobactor cloacae JCM 1232; assay: as above; conditions: agar medium pH 7.0, 37° C. one night; BHA 0.5%, BHT 0.5%, 1,5-D-anhydrofructose 1%
[8] = test system: Pseudomonas aeruginosa IFO 12689; assay: as above; conditions: agar medium pH 7.0, 37° C. one night; BHA 0.5%, BHT 0.5%, 1,5-D-anhydrofructose 1%
[9] = test system: Enterobactor cloacae JCM 1232; assay: as above; conditions: agar medium pH 6.5, 37° C. one night
Excerpt: as §4, §2, §5, §3

[10] = test system: Streptococcus eqinus ATCC 9812; assay: as above; conditions: agar medium pH 6.5, 37° C. one night
Excerpt: as §4, §2, §5, §3

[11] = test system: Pseudomonas aeruginosa IFO 12689; assay: as above; conditions: agar medium pH 6.5, 37° C. one night
Excerpt: as §4, §2, §5, §3

[12] = test system: Bacillus subtillis IFO 3009; assay: as above; conditions: agar medium pH 6.5, 37° C. one night
Excerpt: as §4, §2, §5, §3

[13] = agar medium pH 7.0, 37° C. one night, BHA 0.5%, BHT 0.5%, 1,5-D-anhydrofructose 1%
[14] = agar medium pH 6.5, 37° C. one night, 1,5-D-anhydrofructose 1%, sodium citrate 0.5%, sodium polyphosphate 0.2%, sodium malate 0.5%, sodium gluconate 0.5%, sodium tartrate 0.5%, sodium ascorbate 1%, sodium erythorbate 0.2%
[15] = agar medium pH 6.5, 37° C. one night, sodium erythorbate 0.2%, 1,5-D-anhydrofructose 1%
[16] = 1,5-D-anhydrofructose 1%, sodium citrate 0.5%, sodium polyphosphate 0.2%, sodium malate 0.5%, sodium gluconate 0.5%, sodium tartrate 0.5%, sodium ascorbate 1%, sodium erythorbate 0.2%
[17] = sodium erythorbate 0.2%, 1,5-D-anhydrofructose 1%
[18] = agar medium pH 6.5, 37° C. one night, sodium ascorbate 1%, 1,5-D-anhydrofructose 1%
[19] = sodium ascorbate 1%, 1,5-D-anhydrofructose 1%

| Compound | condition of the colonies (Bacillus cereus IFO 3131; [14]) | condition of the colonies [2, 14] | condition of the colonies [3, 14] | condition of the colonies [4, 14] | condition of the colonies [9, 16] | condition of the colonies [10, 16] | condition of the colonies [11, 16] | condition of the colonies [12, 16] | further results |
| --- | --- | --- | --- | --- | --- | --- | --- | --- | --- |
| tocopherol |  |  |  |  |  |  |  |  | effect of enhancing the growth suppressing effect of 1,5-D-anhydrofructose [1]: exhibit the above effect |
| COc1ccc(O)c(C(C)(C)C)c1 [BHA, butylhydroxyanisol] |  |  |  |  |  |  |  |  | condition of the colonies (Bacillus cereus IFO 3131; [13]): −; condition of the colonies [2, 13]: −; condition of the colonies [3, 13]: −; condition of the colonies [4, 13]: −; growth inhibitory effect against gram-positive bacteria (gram-positive bacteria): exhibited a growth inhibitory effect against all of the examined gram-positive bacteria; condition of the colonies [5]: −; condition of the colonies [6]: −; condition of the colonies [7]: ±; condition of the colonies [8]: + |
| O=C1O[C@H]([C@H](O)CO)C([O-])=C1O.[Na+] [sodium erythorbate] | + | + | + | + | + | + | + | + | growth suppressing ability when solely used [1]: do not inhibit growth of the bacteria; condition of the colonies (Bacillus cereus IFO 3131; [15]): +; condition of the colonies [2, 15]: +; condition of the colonies [3, 15]: +; condition of the colonies [4, 15]: +; condition of the colonies [9, 17]: +; condition of the colonies [10, 17]: +; condition of the colonies [11, 17]: +; condition of the colonies [12, 17]: + |
| O=C([O-])[C@H](O)[C@@H](O)[C@H](O)[C@H](O)CO.[Na+] [sodium gluconate] | + | + | + | + | + | + | + | + |  |
| O=C([O-])CC(O)C(=O)[O-].[Na+].[Na+] (stereo not shown) [sodium malate] | + | + | + | + | + | + | + | + |  |
| catechin |  |  |  |  |  |  |  |  | effect of enhancing the growth suppressing effect of 1,5-D-anhydrofructose [1]: exhibit the above effect |
| Cc1cc(C(C)(C)C)c(O)c(C(C)(C)C)c1 [BHT, dibutylhydroxytoluene] |  |  |  |  |  |  |  |  | condition of the colonies (Bacillus cereus IFO 3131; [13]): −; condition of the colonies [2, 13]: −; condition of the colonies [3, 13]: ±; condition of the colonies [4, 13]: +; growth inhibitory effect against gram-positive bacteria (gram-positive bacteria): exhibited a growth inhibitory effect against all of the examined gram-positive bacteria; condition of the colonies [5]: −; condition of the colonies [6]: −; condition of the colonies [7]: +; condition of the colonies [8]: + |
| O=C1O[C@H]([C@@H](O)CO)C([O-])=C1O.[Na+] [sodium ascorbate] | + | + | + | + | + | + | + | + | growth suppressing ability when solely used [1]: does not have a growth suppressing ability against any of the bacteria; also recorded: do not inhibit growth of the bacteria; condition of the colonies (Bacillus cereus IFO 3131; [18]): +; condition of the colonies [2, 18]: +; condition of the colonies [3, 18]: +; condition of the colonies [4, 18]: +; condition of the colonies [9, 19]: +; condition of the colonies [10, 19]: +; condition of the colonies [11, 19]: +; condition of the colonies [12, 19]: + |
| O=C([O-])CC(O)(CC(=O)[O-])C(=O)[O-].[Na+].[Na+].[Na+] [sodium citrate] | + | + | + | + | + | + | + | + |  |
| sodium polyphosphate | + | + | + | + | + | + | + | + |  |
| O=C([O-])C(O)C(O)C(=O)[O-].[Na+].[Na+] (stereo not shown) [sodium tartrate] | + | + | + | + | + | + | + | + |  |
